17 compounds from US12371432B2, “Haloallylamine compounds and application thereof” (TransThera Sciences (Nanjing), Inc., priority 2019, dated 2025) can be followed below.

Experiment [1] deals with T1, rhVAP-1 (Homo sapiens, UniProt Q16853).
T1 construct: purchased PeproTech
T1 sequence (Q16853 27-763 limits assumed): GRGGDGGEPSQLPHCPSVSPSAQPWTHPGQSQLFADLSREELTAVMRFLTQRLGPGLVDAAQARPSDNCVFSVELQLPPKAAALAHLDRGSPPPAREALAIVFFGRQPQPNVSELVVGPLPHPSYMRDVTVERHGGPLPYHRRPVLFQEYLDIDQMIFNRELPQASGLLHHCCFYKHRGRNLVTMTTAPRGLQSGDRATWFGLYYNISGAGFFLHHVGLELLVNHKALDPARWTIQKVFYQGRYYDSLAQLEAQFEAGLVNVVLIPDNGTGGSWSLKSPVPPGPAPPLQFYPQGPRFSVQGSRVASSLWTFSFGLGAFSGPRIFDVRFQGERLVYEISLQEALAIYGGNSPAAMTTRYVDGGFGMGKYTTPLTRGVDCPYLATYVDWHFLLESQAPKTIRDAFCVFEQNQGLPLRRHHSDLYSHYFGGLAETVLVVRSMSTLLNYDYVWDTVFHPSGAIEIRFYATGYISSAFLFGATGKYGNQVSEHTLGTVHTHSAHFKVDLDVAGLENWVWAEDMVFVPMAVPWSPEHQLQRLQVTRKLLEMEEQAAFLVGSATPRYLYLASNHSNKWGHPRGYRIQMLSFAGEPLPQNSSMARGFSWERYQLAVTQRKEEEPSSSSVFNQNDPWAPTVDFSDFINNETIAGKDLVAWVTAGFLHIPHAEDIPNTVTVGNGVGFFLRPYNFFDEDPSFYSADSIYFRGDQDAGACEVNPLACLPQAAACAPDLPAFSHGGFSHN
The experiment can be described thus: Inhibitory activity against rhVAP-1 enzyme (Biological Example 2). The conditions noted are these: Table 2; benzylamine substrate, Amplex Red/HRP. Format: biochemical. How it is done: 1. Inhibitory Activity of Compounds Against rhVAP-1 Enzyme
(§1) (1) Instrument, Consumable and Reagent
Microplate reader (Perkin Elmer, Nivo 5S), black unclear-bottom 96-well plate (Corning) and rhVAP-1 (PeproTech)
(§2) (2) Preparation of Concentration Gradient Compound Solutions
An appropriate amount of the compound to be tested was taken, dissolved in DMSO to 10 mM and then stored. Before the study, an appropriate amount of mother liquor of the 10 mM compound to be tested was taken and gradiently diluted 3-fold with DMSO, 10 concentration gradients in total. Each concentration gradient was then diluted 100-fold with 0.1 M of PBS.
(§3) (3) Preparation of Enzyme Solutions
An appropriate amount of protein diluent was added into rhVAP-1 powder, obtaining 1 mg/mL of mother liquor for storage. Before the study, PBS was used to carry out dilution to obtain enzyme solutions of 4× concentrations.
(§4) (4) Preparation of Substrate Mixtures of 2× Concentrations
An appropriate amount of benzylamine was weighed and dissolved with PBS to obtain 200 mM of benzylamine solution. The benzylamine solution was added with 2 mM of Amplex Red mother liquor and 500 U/mL of HRP mother liquor and diluted with PBS to obtain substrate mixtures of 2× concentrations.
(§5) 10 μL compound solutions of different concentrations, 25 μL rhVAP-1 enzyme solutions of 4× concentrations and 15 μL of PBS were first added into a 96-well plate, shaken to be mixed uniformly and then incubated at 37° C. for 30 min. 50 μL substrate mixtures of 2× concentrations were then added into each well, and the microplate reader was immediately used to perform detection with 580 nm (20 nm) exciting light and 620 nm (10 nm) emission light for 5 min each time, 30 min in total. The inhibition rate was calculated according to the following formula: V (RFU/min)=(Ft (RFU)−F0 (RFU))/(time(min)) Inhibition rate (%)=100%−Vcmpd (RFU/min)/Vmax (RFU/min)×100%
(§6) V: fluorescence change rate; Ft: fluorescence reading at time point t; F0: initial fluorescence reading; Time: duration t; Vcmpd: fluorescence change rate of tested compound; Vmax: Max hole fluorescence change rate.
(§7) (6) Fitting of Dose-Response Curve
(§8) With the log value of concentration as the X axis and the percent inhibition rate as the Y axis, the log (inhibitor) vs. response-variable slope of analysis software GraphPad Prism 5 was used to fit a dose-response curve, thus obtaining the IC50 value of activity of each compound against the enzyme.

Experiment [2] deals with T2, rhAOC1 (Homo sapiens, UniProt P19801).
T2 construct: purchased R&D
T2 sequence (P19801 20-751): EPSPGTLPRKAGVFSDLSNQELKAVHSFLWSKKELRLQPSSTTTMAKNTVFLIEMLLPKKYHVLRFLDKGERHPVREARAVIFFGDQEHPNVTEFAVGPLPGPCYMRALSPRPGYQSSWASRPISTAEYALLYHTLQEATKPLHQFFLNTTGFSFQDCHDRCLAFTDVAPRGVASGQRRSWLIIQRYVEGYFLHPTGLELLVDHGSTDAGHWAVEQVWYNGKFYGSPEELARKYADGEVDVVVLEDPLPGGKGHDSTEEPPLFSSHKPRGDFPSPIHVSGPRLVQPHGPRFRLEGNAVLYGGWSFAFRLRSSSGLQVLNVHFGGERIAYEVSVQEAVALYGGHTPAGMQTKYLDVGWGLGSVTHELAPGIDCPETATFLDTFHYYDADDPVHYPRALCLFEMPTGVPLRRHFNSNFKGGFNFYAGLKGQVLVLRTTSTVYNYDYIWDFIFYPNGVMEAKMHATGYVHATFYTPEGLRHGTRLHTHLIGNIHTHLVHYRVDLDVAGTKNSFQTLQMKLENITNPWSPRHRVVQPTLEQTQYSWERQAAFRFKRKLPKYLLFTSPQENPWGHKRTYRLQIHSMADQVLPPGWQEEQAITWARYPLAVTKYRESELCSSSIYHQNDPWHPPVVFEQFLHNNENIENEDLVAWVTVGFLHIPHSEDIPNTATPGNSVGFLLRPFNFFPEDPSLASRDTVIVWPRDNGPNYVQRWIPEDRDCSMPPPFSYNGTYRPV
The experiment can be described thus: Selectivity against rhAOC1 enzyme (Biological Example 2). The conditions noted are these: Table 2; histamine substrate, Amplex Red/HRP. The format is biochemical. As to the method: 2. Selectivity of Compounds Against rhAOC1 Enzyme
as §1
Microplate reader (Perkin Elmer, Nivo 5S), black unclear-bottom 96-well plate (Corning) and rhAOC1 (R&D)
as §2
An appropriate amount of the compound to be tested was taken, dissolved in DMSO to 10 mM and then stored. Before the study, an appropriate amount of mother liquor of the 10 mM compound to be tested was taken and gradiently diluted 3-fold with DMSO, 10 concentration gradients in total. Each concentration gradient was then diluted 10-fold with 0.1 M of PBS.
as §3
An appropriate amount of rhAOC1 mother liquor with a concentration of 0.441 mg/mL was taken and diluted with an appropriate amount of 50 mM HEPES buffer solution to obtain enzyme solutions of 4× concentrations.
as §4
An appropriate amount of histamine was weighed and dissolved with 50 mM of HEPES buffer solution to obtain 20 mM of histamine solution. The histamine solution was added with 2 mM of Amplex Red mother liquor and 500 U/mL of HRP mother liquor and diluted with 50 mM of HEPES buffer solution to obtain substrate mixtures of 2× concentrations.
as §5, with “rhAOC1” for “rhVAP-1”, “50 mM HEPES buffer solution” for “PBS”, “detect fluorescence intensity of each well” for “perform detection”
as §6, §7, §8

Counter-ions that a name gives are not always drawn.

On to `CC(C)(C)N1CCc2c(cnn2C/C(=C/F)CN)C1=O` [Compound A21, (E)-1-(2-(aminomethyl)-3-fluoroallyl)-5-(tert-butyl)-1,5,6,7-tetrahydro-4H-pyrazolo[4,3-c]pyridin-4-one], for which the IC50 – broadly, the concentration that inhibits the measured activity by half – came to 96 nM in experiment [1] and 4050 nM in experiment [2].

As for `CCN1Cc2cnn(C/C(=C/F)CN)c2C1=O` [Compound A31 hydrochloride, (E)-1-(2-(aminomethyl)-3-fluoroallyl)-5-ethyl-4,5-dihydropyrrolo[3,4-c]pyrazol-6(1H)-one], the IC50 was found to be 53 nM in experiment [1] and 8280 nM in experiment [2].

For the compound `CC(C)(C)NC(=O)c1ccn(C/C(=C/F)CN)c1` [Compound B12, (E)-1-(2-aminomethyl-3-fluoroallyl)-N-tert-butyl-1H-pyrrole-3-carboxamide], the IC50 in experiment [1] was 83 nM; in experiment [2], 8580 nM.

In the case of `NC/C(=C\F)Cn1cc2c(n1)CCNC2=O` [Compound A23 hydrochloride, (E)-2-(2-(aminomethyl)-3-fluoroallyl)-2,5,6,7-tetrahydro-4H-pyrazolo[4,3-c]pyridin-4-one], in experiment [1], the IC50 was 39 nM.

Take `CCC(C)(C)N1CCc2nn(C/C(=C/F)CN)cc2C1=O` [Compound A49 hydrochloride, (E)-2-(2-(aminomethyl)-3-fluoroallyl)-5-(tert-pentyl)-2,5,6,7-tetrahydro-4H-pyrazolo[4,3-c]pyridin-4-one]: in experiment [1], the IC50 was 17 nM.

Take `NC/C(=C\F)Cn1cc2c(n1)CCN(C1CCC1)C2=O` [Compound A9 hydrochloride, (E)-2-(2-(aminomethyl)-3-fluoroallyl)-5-cyclobutyl-2,5,6,7-tetrahydro-4H-pyrazolo[4,3-c]pyridin-4-one]: the IC50 was determined as 37 nM in experiment [1] and 911 nM in experiment [2].

As to `NC/C(=C\F)Cn1ccc2cc(C(=O)N3CCCC3)ccc21` [Compound C7 hydrochloride, (E)-(1-(2-(aminomethyl)-3-fluoroallyl)-1H-indole-5-yl)(pyrrolidin-1-yl)methanone], the concentration for half-maximal inhibition (IC50) turned out to be 96 nM in experiment [1] and 13400 nM in experiment [2].

For `CN(C)C(=O)c1cnn(C/C(=C/F)CN)c1` [Compound B29, (E)-1-(2-(aminomethyl)-3-fluoroallyl)-N,N-dimethyl-1H-pyrazole-4-carboxamide], the IC50 in experiment [1] came out at 70 nM; in experiment [2], 10800 nM.

In the case of `COC1(C)CCN(C(=O)c2ccc3c(ccn3C/C(=C/F)CN)c2)CC1` [Compound C15 hydrochloride, (E)-(1-(2-(aminomethyl)-3-fluoroallyl)-1H-indol-5-yl)(4-methoxy-4-methylpiperidin-1-yl)methanone], the IC50 in experiment [1] turned out to be 63 nM; in experiment [2], 8380 nM.

For `CC(C)(C)NC(=O)c1cnn(C/C(=C/F)CN)c1` [Compound B3, (E)-1-(2-(aminomethyl)-3-fluoroallyl)-N-(tert-butyl)-1H-pyrazole-4-carboxamide], the IC50 in experiment [1] was 89 nM; in experiment [2] it was 12500 nM.

With `COC1CCN(C(=O)c2ccc3c(ccn3C/C(=C/F)CN)c2)CC1` [Compound C14 hydrochloride, (E)-(1-(2-(aminomethyl)-3-fluoroallyl)-1H-indol-5-yl)(4-methoxypiperidin-1-yl)methanone], the IC50 came to 50 nM in experiment [1] and 13100 nM in experiment [2].

With `NC/C(=C\F)Cn1cc2c(n1)CCN(C1CCCC1)C2=O` [Compound A10 hydrochloride, (E)-2-(2-(aminomethyl)-3-fluoroallyl)-5-cyclopentyl-2,5,6,7-tetrahydro-4H-pyrazolo[4,3-c]pyridin-4-one], the IC50 in experiment [1] was 40 nM; in experiment [2], 1240 nM.

In the case of `CN1CCc2nn(C/C(=C/F)CN)cc2C1=O` [Compound A24 hydrochloride, (E)-2-(2-(aminomethyl)-3-fluoroallyl)-5-methyl-2,5,6,7-tetrahydro-4H-pyrazolo[4,3-c]pyridin-4-one], the IC50 in experiment [1] was found to be 54 nM; in experiment [2], 4720 nM.

As for `CCNC(=O)c1cnn(C/C(=C/F)CN)c1` [Compound B2, (E)-1-(2-(aminomethyl)-3-fluoroallyl)-N-ethyl-1H-pyrazole-4-carboxamide], the IC50 came out at 55 nM in experiment [1] and 5380 nM in experiment [2].

In turn, `NC/C(=C\F)Cn1cc(C(=O)Nc2ccc(Cl)cc2)cn1` [Compound B28, (E)-1-(2-aminomethyl-3-fluoroallyl)-N-4-chlorophenyl-1H-pyrazole-4-carboxamide] returned an IC50 in experiment [1] of 14 nM.

Regarding `COCCN1CCc2nn(C/C(=C/F)CN)cc2C1=O` [Compound A47 hydrochloride, (E)-2-(2-(aminomethyl)-3-fluoroallyl)-5-(2-methoxyethyl)-2,5,6,7-tetrahydro-4H-pyrazolo[4,3-c]pyridin-4-one], the IC50 in experiment [1] came out at 20 nM.

With `NC/C(=C\F)Cn1cc2c(n1)CCN(CC1CC1)C2=O` [Compound A48 hydrochloride, (E)-2-(2-(aminomethyl)-3-fluoroallyl)-5-(cyclopropylmethyl)-2,5,6,7-tetrahydro-4H-pyrazolo[4,3-c]pyridin-4-one], in experiment [1], half-maximal inhibition (IC50) required 12 nM.
